How the values were obtained:
mammals = details: cited from earlier work; for neuronal toxicity: used in mammals
[1] = cited from earlier work
[2] = test system: UPII-SV40T transgenic mice; test: Intravesical instillation of ICG and intraoperative NIRF identification of lymphatic channels and SLNs in bladder tumor mice; assay type: in vivo

| Molecule | neuronal toxicity (mammals) | metabolism ([1]; in the body) | excretion ([1]; in vivo) | reabsorption from the intestine / enterohepatic recirculation ([1]; in vivo) | animals showing draining lymphatic channels and SLNs ([2]; 12 female mice, intravesical ICG 2.5 mg/mf, 100 or 200 μl, NIRF 20, 30 and 60 minutes later) | visualization of SLNs by intraoperative imaging ([2]; dye instilled at 10, 20, 30, or 60 minutes before imaging) | sentinel nodes detected per animal ([2]; in all animals, intravesical ICG, NIRF) | location of SLNs ([2]; intravesical ICG, NIRF) | fluorescence of lymphatic channels and nodes following instillation of the dye into the bladder ([2]; mouse, FIG. 1B and 1C) | toxicity (mammals; in vivo) |
| --- | --- | --- | --- | --- | --- | --- | --- | --- | --- | --- |
| N=C(N)c1ccc(/C=C/c2ccc(C(=N)N)cc2O)cc1 [Fluorogold] | low evidence of neuronal toxicity | – | – | – | – | – | – | – | – | – |
| CC1(C)C(/C=C/C=C/C=C/C=C2\N(CCCCS(=O)(=O)O)c3ccc4ccccc4c3C2(C)C)=[N+](CCCCS(=O)(=O)[O-])c2ccc3ccccc3c21 [ICG, indocyanine green] | low evidence of neuronal toxicity | not metabolized | excreted exclusively by the liver | not reabsorbed from the intestine and does not undergo enterohepatic recirculation | 12 animals | successfully visualized | At least two | common or external iliac lymphatic chains | fluorescing of the mouse's lymphatic channels and nodes on iliac bifurcation | low toxicity |
| Fast Blue | low evidence of neuronal toxicity | – | – | – | – | – | – | – | – | – |

From US9089601B2, “Pre- and intra-operative imaging of bladder cancer” (University of Rochester, priority 2006, dated 2015)
